Data as given in US20240383886A1, “Protein Tyrosine Phosphatase Degraders and Methods of Use Thereof” (CALICO LIFE SCIENCES LLC, priority 2019, published 2024).

Tests used:
[1] = system: PTPN2; assay: HiBiT-Degradation B16F10.4 PTPN2; type: cell-based; conditions: B16F10.4 cells, 24.0 hours
[2] = target: T1, PTPN2 (Homo sapiens, UniProt P17706); assay: HiBiT-Degradation 293T.109 PTPN2 (Nano-Glo HiBiT Lytic Assay); type: cell-based; conditions: 293T.109 (HiBiT-PTPN2) cells, 24.0 hours
T1 construct: expressed in transfected cells; host or cells: 293T (293T.109 HiBiT-PTPN2 line; parental 293T WT from ATCC)
T1 sequence (P17706 1-415): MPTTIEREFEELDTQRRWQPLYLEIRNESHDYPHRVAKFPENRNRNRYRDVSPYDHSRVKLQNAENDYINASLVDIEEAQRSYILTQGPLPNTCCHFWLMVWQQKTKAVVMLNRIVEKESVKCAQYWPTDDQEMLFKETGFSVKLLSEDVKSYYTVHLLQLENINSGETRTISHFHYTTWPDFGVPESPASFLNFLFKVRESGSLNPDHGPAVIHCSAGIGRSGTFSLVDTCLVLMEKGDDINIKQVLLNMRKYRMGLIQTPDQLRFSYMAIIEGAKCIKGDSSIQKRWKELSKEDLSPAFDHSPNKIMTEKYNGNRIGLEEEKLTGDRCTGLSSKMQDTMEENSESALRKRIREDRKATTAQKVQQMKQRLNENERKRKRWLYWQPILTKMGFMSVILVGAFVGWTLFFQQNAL
Procedure, shortened: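 Luminescence from a lytic HiBiT read gave PTPN2 levels after 24 h compound exposure at 37° C. Compounds were tested at 11 half-log points from a 10 μM top concentration, in duplicate. The cells were 293T engineered with an N-terminal HiBiT–PTPN2 fusion, plated at 5000 per well, with untreated wells as negative control and no-reagent wells as positive control.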

Compound | DC50 [1] | DC50 [2]
Cn1c(=O)n(C2CCC(=O)NC2=O)c2ccc(C3CN(CC(=O)Nc4ccc5c(F)c(N6CC(=O)NS6(=O)=O)c(O)cc5c4)C3)cc21 (stereo not drawn) [Example 160, 2-[3-[1-(2,6-dioxo-3-piperidyl)-3-methyl-2-oxo-benzimidazol-5-yl]azetidin-1-yl]-N-[5-fluoro-7-hydroxy-6-(1,1,4-trioxo-1,2,5-thiadiazolidin-2-yl)-2-naphthyl]acetamide] | 200 to 1000 nM | 10 to 50 nM
Cn1c(=O)n(C2CCC(=O)NC2=O)c2ccc(C3CN(CC(=O)NCCOc4ccc5cc(O)c(N6CC(=O)NS6(=O)=O)c(F)c5c4)C3)cc21 (stereo not drawn) [Example 161, 2-[3-[1-(2,6-dioxo-3-piperidyl)-3-methyl-2-oxo-benzimidazol-5-yl]azetidin-1-yl]-N-[2-[[8-fluoro-6-hydroxy-7-(1,1,4-trioxo-1,2,5-thiadiazolidin-2-yl)-2-naphthyl]oxy]ethyl]acetamide] | 200 to 1000 nM | 200 to 1000 nM
O=C1CCC(N2C(=O)c3cccc4c(C5CCN(CC(=O)N6CC(Oc7ccc8cc(O)c(N9CC(=O)NS9(=O)=O)c(F)c8c7)C6)CC5(F)F)ccc2c34)C(=O)N1 (stereo not drawn) [Example 165, 3-[6-[3,3-difluoro-1-[2-[3-[[8-fluoro-6-hydroxy-7-(1,1,4-trioxo-1,2,5-thiadiazolidin-2-yl)-2-naphthyl]oxy]azetidin-1-yl]-2-oxo-ethyl]-4-piperidyl]-2-oxo-benzo[cd]indol-1-yl]piperidine-2,6-dione] | 50 to 200 nM | 10 to 50 nM
CN(CCOc1ccc2cc(O)c(N3CC(=O)NS3(=O)=O)c(F)c2c1)C(=O)CNCCCc1ccc2c3c(cccc13)C(=O)N2C1CCC(=O)NC1=O (stereo not drawn) [Example 166, N-(2-((7-(1,1-dioxido-4-oxo-1,2,5-thiadiazolidin-2-yl)-8-fluoro-6-hydroxynaphthalen-2-yl)oxy)ethyl)-2-((3-(1-(2,6-dioxopiperidin-3-yl)-2-oxo-1,2-dihydrobenzo[cd]indol-6-yl)propyl)amino)-N-methylacetamide] | 200 to 1000 nM | 50 to 200 nM
Cn1nc(C2CCC(=O)NC2=O)c2ccc(N3CCC(CC(=O)Nc4ccc5c(F)c(N6CC(=O)NS6(=O)=O)c(O)cc5c4)CC3)cc21 (stereo not drawn) [Example 167, 2-[1-[3-(2,6-dioxo-3-piperidyl)-1-methyl-indazol-6-yl]-4-piperidyl]-N-[5-fluoro-7-hydroxy-6-(1,1,4-trioxo-1,2,5-thiadiazolidin-2-yl)-2-naphthyl]acetamide] | 50 to 200 nM | 50 to 200 nM
Cn1c(=O)n(C2CCC(=O)NC2=O)c2ccc(C3CCN(CCC(=O)Nc4ccc5c(F)c(N6CC(=O)NS6(=O)=O)c(O)cc5c4)CC3)cc21 (stereo not drawn) [Example 170, N-(6-(1,1-dioxido-4-oxo-1,2,5-thiadiazolidin-2-yl)-5-fluoro-7-hydroxynaphthalen-2-yl)-3-(4-(1-(2,6-dioxopiperidin-3-yl)-3-methyl-2-oxo-2,3-dihydro-1H-benzo[d]imidazol-5-yl)piperidin-1-yl)propanamide] | 50 to 200 nM | 10 to 50 nM
Cn1c(=O)n(C2CCC(=O)NC2=O)c2ccc(C3CCN(CC(=O)N4CC(Nc5ccc6cc(O)c(N7CC(=O)NS7(=O)=O)c(F)c6c5)C4)CC3(F)F)cc21 (stereo not drawn) [Example 171, 3-(5-(1-(2-(3-((7-(1,1-dioxido-4-oxo-1,2,5-thiadiazolidin-2-yl)-8-fluoro-6-hydroxynaphthalen-2-yl)amino)azetidin-1-yl)-2-oxoethyl)-3,3-difluoropiperidin-4-yl)-3-methyl-2-oxo-2,3-dihydro-1H-benzo[d]imidazol-1-yl)piperidine-2,6-dione] | 50 to 200 nM | 50 to 200 nM
Cn1c(=O)n(C2CCC(=O)NC2=O)c2ccc(-c3cnn(CCC(=O)Nc4ccc5c(F)c(N6CC(=O)NS6(=O)=O)c(O)cc5c4)c3)cc21 (stereo not drawn) [Example 173, N-(6-(1,1-dioxido-4-oxo-1,2,5-thiadiazolidin-2-yl)-5-fluoro-7-hydroxynaphthalen-2-yl)-3-(4-(1-(2,6-dioxopiperidin-3-yl)-3-methyl-2-oxo-2,3-dihydro-1H-benzo[d]imidazol-5-yl)-1H-pyrazol-1-yl)propanamide] | 50 to 200 nM | 10 to 50 nM
CCn1c(=O)n(C2CCC(=O)NC2=O)c2ccc(C3CCN(CC(=O)Nc4ccc5c(F)c(N6CC(=O)NS6(=O)=O)c(O)cc5c4)CC3)cc21 (stereo not drawn) [Example 174, N-(6-(1,1-dioxido-4-oxo-1,2,5-thiadiazolidin-2-yl)-5-fluoro-7-hydroxynaphthalen-2-yl)-2-(4-(1-(2,6-dioxopiperidin-3-yl)-3-ethyl-2-oxo-2,3-dihydro-1H-benzo[d]imidazol-5-yl)piperidin-1-yl)acetamide] | 50 to 200 nM | 10 to 50 nM
Cn1c(=O)n(C2CCC(=O)NC2=O)c2ccc(-c3ccc(CC(=O)Nc4ccc5c(F)c(N6CC(=O)NS6(=O)=O)c(O)cc5c4)nc3)cc21 (stereo not drawn) [Example 175, N-(6-(1,1-dioxido-4-oxo-1,2,5-thiadiazolidin-2-yl)-5-fluoro-7-hydroxynaphthalen-2-yl)-2-(5-(1-(2,6-dioxopiperidin-3-yl)-3-methyl-2-oxo-2,3-dihydro-1H-benzo[d]imidazol-5-yl)pyridin-2-yl)acetamide] | 50 to 200 nM | 10 to 50 nM
Cn1c(=O)n(C2CCC(=O)NC2=O)c2ccc(C3CCN(CC4CC4C(=O)Nc4ccc5c(F)c(N6CC(=O)NS6(=O)=O)c(O)cc5c4)CC3)cc21 (stereo not drawn) [Example 176, N-(6-(1,1-dioxido-4-oxo-1,2,5-thiadiazolidin-2-yl)-5-fluoro-7-hydroxynaphthalen-2-yl)-2-((4-(1-(2,6-dioxopiperidin-3-yl)-3-methyl-2-oxo-2,3-dihydro-1H-benzo[d]imidazol-5-yl)piperidin-1-yl)methyl)cyclopropane-1-carboxamide] | 50 to 200 nM | 10 to 50 nM

Continued, values first:

DC50 [1] | DC50 [2] | Compound
50 to 200 nM | 50 to 200 nM | Cn1c(=O)n(C2CCC(=O)NC2=O)c2ccc(N3CCN(CC(=O)Nc4ccc5c(F)c(N6CC(=O)NS6(=O)=O)c(O)cc5c4)CC3)cc21 (stereo not drawn) [Example 159, 2-[4-[1-(2,6-dioxo-3-piperidyl)-3-methyl-2-oxo-benzimidazol-5-yl]piperazin-1-yl]-N-[5-fluoro-7-hydroxy-6-(1,1,4-trioxo-1,2,5-thiadiazolidin-2-yl)-2-naphthyl]acetamide]
50 to 200 nM | 10 to 50 nM | Cn1c(=O)n(C2CCC(=O)NC2=O)c2ccc(C3CCN(CC(=O)N4CC[C@@H](COc5ccc6cc(O)c(N7CC(=O)NS7(=O)=O)c(F)c6c5)C4)CC3(F)F)cc21 (stereo partly drawn) [Example 162, 3-[5-[3,3-difluoro-1-[2-[(3R)-3-[[8-fluoro-6-hydroxy-7-(1,1,4-trioxo-1,2,5-thiadiazolidin-2-yl)-2-naphthyl]oxymethyl]pyrrolidin-1-yl]-2-oxo-ethyl]-4-piperidyl]-3-methyl-2-oxo-benzimidazol-1-yl]piperidine-2,6-dione]
10 to 50 nM | 10 to 50 nM | Cn1nc([C@@H]2CCC(=O)NC2=O)c2ccc(N3CCC(CC(=O)Nc4ccc5c(F)c(N6CC(=O)NS6(=O)=O)c(O)cc5c4)CC3)cc21 [Example 163, 2-[1-[3-[(3S)-2,6-dioxo-3-piperidyl]-1-methyl-indazol-6-yl]-4-piperidyl]-N-[5-fluoro-7-hydroxy-6-(1,1,4-trioxo-1,2,5-thiadiazolidin-2-yl)-2-naphthyl]acetamide]
50 to 200 nM | 10 to 50 nM | Cn1nc([C@H]2CCC(=O)NC2=O)c2ccc(N3CCC(CC(=O)Nc4ccc5c(F)c(N6CC(=O)NS6(=O)=O)c(O)cc5c4)CC3)cc21 [Example 164, 2-[1-[3-[(3R)-2,6-dioxo-3-piperidyl]-1-methyl-indazol-6-yl]-4-piperidyl]-N-[5-fluoro-7-hydroxy-6-(1,1,4-trioxo-1,2,5-thiadiazolidin-2-yl)-2-naphthyl]acetamide]
10 to 50 nM | 50 to 200 nM | Cn1c(=O)n(C2CCC(=O)NC2=O)c2ccc(Nc3ccc(CC(=O)Nc4ccc5c(F)c(N6CC(=O)NS6(=O)=O)c(O)cc5c4)cn3)cc21 (stereo not drawn) [Example 168, N-(6-(1,1-dioxido-4-oxo-1,2,5-thiadiazolidin-2-yl)-5-fluoro-7-hydroxynaphthalen-2-yl)-2-(6-((1-(2,6-dioxopiperidin-3-yl)-3-methyl-2-oxo-2,3-dihydro-1H-benzo[d]imidazol-5-yl)amino)pyridin-3-yl)acetamide]
10 to 50 nM | 10 to 50 nM | Cc1cc(CC(=O)Nc2ccc3c(F)c(N4CC(=O)NS4(=O)=O)c(O)cc3c2)ccc1Nc1ccc2c(c1)n(C)c(=O)n2C1CCC(=O)NC1=O (stereo not drawn) [Example 169, N-(6-(1,1-dioxido-4-oxo-1,2,5-thiadiazolidin-2-yl)-5-fluoro-7-hydroxynaphthalen-2-yl)-2-(4-((1-(2,6-dioxopiperidin-3-yl)-3-methyl-2-oxo-2,3-dihydro-1H-benzo[d]imidazol-5-yl)amino)-3-methylphenyl)acetamide]
10 to 50 nM | 10 to 50 nM | Cn1c(=O)n(C2CCC(=O)NC2=O)c2ccc(-c3cnn(CC(=O)Nc4ccc5c(F)c(N6CC(=O)NS6(=O)=O)c(O)cc5c4)c3)cc21 (stereo not drawn) [Example 172, 2-[4-[1-(2,6-dioxo-3-piperidyl)-3-methyl-2-oxo-benzimidazol-5-yl]pyrazol-1-yl]-N-[5-fluoro-7-hydroxy-6-(1,1,4-trioxo-1,2,5-thiadiazolidin-2-yl)-2-naphthyl]acetamide]
